Here are results for seven compounds from patent US20220289698A1, “INHIBITORS OF HUMAN ATGL” (Karl-Franzens-Universität Graz, priority 2019, published 2022).

The target in one series is T1, human ATGL (Homo sapiens, UniProt Q96AD5).
T1 construct: made in house; host or cells: Expi cells (lysate, not purified)
T1 sequence (Q96AD5 1-504): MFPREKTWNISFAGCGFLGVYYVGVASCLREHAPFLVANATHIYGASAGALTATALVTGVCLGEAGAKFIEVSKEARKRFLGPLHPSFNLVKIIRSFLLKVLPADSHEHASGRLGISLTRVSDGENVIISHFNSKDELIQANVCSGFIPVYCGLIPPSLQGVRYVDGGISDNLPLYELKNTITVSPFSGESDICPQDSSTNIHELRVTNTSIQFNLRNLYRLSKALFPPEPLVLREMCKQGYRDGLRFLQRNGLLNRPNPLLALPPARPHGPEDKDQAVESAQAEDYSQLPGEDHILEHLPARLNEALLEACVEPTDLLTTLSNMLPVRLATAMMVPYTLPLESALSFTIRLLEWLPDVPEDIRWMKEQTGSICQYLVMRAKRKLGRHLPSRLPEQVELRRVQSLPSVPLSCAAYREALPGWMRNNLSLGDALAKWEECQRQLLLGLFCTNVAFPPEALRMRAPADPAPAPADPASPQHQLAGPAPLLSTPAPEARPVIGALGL
Put plainly: Ki determination, human ATGL lysates with increasing substrate concentrations. The settings on record: non-linear regression. It counts as biochemical. The method, then: For determination of Ki values, lysates from Expi cells overexpressing human ATGL were incubated with recombinant purified ATGL co-activator CGI-58 and ATGL inhibitors at a single concentration dependent on the previously determined IC50. Increasing concentrations of substrate containing radiolabeled triolein were added and liberated FA were extracted and quantified by liquid scintillation. Inhibitors were dissolved in DMSO which was used as control. Ki was determined via non-linear regression analysis. Samples were measured in triplicates.

In series [1] the test system is differentiated hMADS adipocytes. Put plainly: Isoproterenol-stimulated lipolysis in differentiated hMADS adipocytes. The format is cell-based. The following applies: Homo sapiens, Adipocyte, 2 h pretreatment, 1 μM isoproterenol 1 h. The method, then: Human differentiated hMADS adipocytes were pretreated with DMSO or ATGL inhibitors for 2 h. Subsequently, lipolysis was stimulated with 1 μM Isoproterenol for 1 h and fatty acid release was determined from media via NEFA Reagent (Wako Diagnostics). Samples were measured in triplicates.
Human differentiated hMADS adipocytes were pretreated with DMSO or ATGL inhibitors for 2 h. Subsequently, lipolysis was stimulated with 1 μM Isoproterenol for 1 h and glycerol release was determined from media via Free glycerol reagent (Sigma Aldrich). Samples were measured in triplicates.

The subject of the next series is HepG2 cells. Put plainly: Toxicity screening (LDH) in HepG2 cells. It counts as cell-based, human. The settings on record: 24 h treatment, LDH release. The method, then: HepG2 cells were seeded in 96 well plates and at 50% confluency treated with DMSO (0.5% final conc.) or ATGL Inhibitors for 24 h in DMEM+P/S+3% heat inactivated FCS (3 h at 62° C.). Subsequently, LDH activity of 50 μl medium was determined via the Roche LDH Kit. Samples measured in triplicates.
(LDH in the medium is a marker of cell lysis.)

The subject of series [2] is differentiated 3T3-L1 adipocytes. Put plainly: Isoproterenol-stimulated lipolysis in differentiated 3T3-L1 adipocytes. It counts as cell-based. The following applies: Mus musculus, 2 h pretreatment. The method, then:
Mouse differentiated 3T3-L1 adipocytes were pretreated with DMSO or ATGL inhibitors for 2 h. Subsequently, lipolysis was stimulated with 1 μM Isoproterenol for 1 h and fatty acid release was determined from media via NEFA Reagent (Wako Diagnostics). Samples were measured in triplicates.
Mouse differentiated 3T3-L1 adipocytes were pretreated with DMSO or ATGL inhibitors for 2 h. Subsequently, lipolysis was stimulated with 1 μM Isoproterenol for […] and glycerol release was determined from media via Free glycerol reagent (Sigma Aldrich). Samples were measured in triplicates.

[3] abbreviates: 1 μM isoproterenol 1 h, fatty acid release, read-out: IC50 3T3 FA release.
The mark [4] stands for this setting: 1 μM isoproterenol, glycerol release, read-out: IC50 3T3 glycerol release.

pIC50, pKi: −log10 of the molar value. Where two headings read alike, the source gives them in different places.

The term pKi denotes the Ki on a negative log10 scale, so that one unit is a factor of ten. Read a low pKi as a large Ki. On human ATGL, `CCOc1ccc(-c2cc(OC)cc(C(=O)OC(C)C)n2)cc1` [Example 35] gave a pKi of 6.30.

One may read the pIC50 as the IC50 on a negative log10 scale, so that one unit is a factor of ten. As to `CCOc1ccc(-c2nc(C(=O)OCc3cccs3)cs2)cc1` [Example 152, Thiophen-2-ylmethyl 2-(4-ethoxyphenyl)thiazole-4-carboxylate], the pIC50 was 4.92 in series [1] (fatty acid release, read-out: IC50 hMADS FA release) and 5.00 in series [1] (glycerol release, read-out: IC50 hMADS glycerol release). Besides, the “Tox HepG2 (LDH) seen from” value with HepG2 cells came to 200 µM. The pKi on human ATGL is 5.09.

With `CCOc1ccc(-c2cccc(C(=O)OCc3ccco3)n2)cc1` [Example 190, Furan-2-ylmethyl 6-(4-ethoxyphenyl)picolinate], the results for the pIC50 in series [2] (setting [3]) and in series [2] (setting [4]) were 5.22 and 4.60, respectively.

Consider `CC#CCOC(=O)c1csc(-c2ccc(OCC)cc2)n1` [Example 209, But-2-yn-1-yl 2-(4-ethoxyphenyl)thiazole-4-carboxylate], for which the “Tox HepG2 (LDH) seen from” value with HepG2 cells came to 200 µM.

For the compound `C#C[C@@H](C)OC(=O)c1csc(-c2ccc(OCC)cc2)n1` [Example 211, (R)-But-3-yn-2-yl 2-(4-ethoxyphenyl)thiazole-4-carboxylate], the results for the pIC50 in series [2] (setting [3]) and in series [2] (setting [4]) were 5.40 and 4.70, respectively.

Turning to `CCOc1ccc(-c2nc(C(=O)OCc3ccsc3)cs2)cc1` [Example 215, Thiophen-3-ylmethyl 2-(4-ethoxyphenyl)thiazole-4-carboxylate], the pIC50 was 5.22 in series [2] (setting [3]) and 4.82 in series [2] (setting [4]).

Turning to `CCOc1ccc(-c2nc(C(=O)OCc3ccoc3)cs2)cc1` [Example 216, Furan-3-ylmethyl 2-(4-ethoxyphenyl)thiazole-4-carboxylate], the pIC50 is 5.00 in series [2] (setting [3]) and 4.60 in series [2] (setting [4]).
